Measured values as given in ChEMBL document CHEMBL1201861, “Genomics of Drug Sensitity in Cancer screening data, Wellcome Trust Sanger Institute”.

Legend:
Assay in all cases: cells
Settings in all cases: Homo sapiens
[1] = system: DSH1; format: functional, cell-based;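 note: growth inhibition of human DSH1 cells, measured with a cell viability readout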
Description: SANGER: Inhibition of human DSH1 cell growth in a cell viability assay.

[2] = system: LXF-289 cell line; format: functional, cell-based
Description: SANGER: Inhibition of human LXF-289 cell growth in a cell viability assay.

[3] = system: COLO-829; format: functional, cell-based
Description: SANGER: Inhibition of human COLO-829 cell growth in a cell viability assay.

[4] = system: EC-GI-10; format: functional, cell-based
Description: SANGER: Inhibition of human EC-GI-10 cell growth in a cell viability assay.

[5] = system: D-263MG; format: functional, cell-based
Description: SANGER: Inhibition of human D-263MG cell growth in a cell viability assay.

[6] = system: LAN-6; format: functional, cell-based;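 note: growth inhibition of LAN-6 cells, determined with a cell viability assay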
Description: SANGER: Inhibition of human LAN-6 cell growth in a cell viability assay.

[7] = system: EM-2; format: functional, cell-based;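 note: growth inhibition of EM-2 cells, read out with a cell viability assay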
Description: SANGER: Inhibition of human EM-2 cell growth in a cell viability assay.

[8] = system: NCI-H747; format: functional, cell-based;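 note: growth inhibition of human NCI-H747 cells, read out by a cell viability assay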
Description: SANGER: Inhibition of human NCI-H747 cell growth in a cell viability assay.

[9] = system: PSN1; format: functional, cell-based;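 note: suppression of growth of human PSN1 cells, read out by a cell viability assay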
Description: SANGER: Inhibition of human PSN1 cell growth in a cell viability assay.

[10] = system: DU-4475; format: functional, cell-based
Description: SANGER: Inhibition of human DU-4475 cell growth in a cell viability assay.

[11] = system: NCI-H2126; format: functional, cell-based;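 note: growth inhibition of the cancer cell line, determined with a cell viability readout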
Description: SANGER: Inhibition of human NCI-H2126 cell growth in a cell viability assay.

[12] = system: RS4-11; format: functional, cell-based;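 note: growth inhibition of RS4-11 cells, read out by a cell viability assay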
Description: SANGER: Inhibition of human RS4-11 cell growth in a cell viability assay.

[13] = system: NCI-H1299; format: functional, cell-based;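 note: growth inhibition of human NCI-H1299 cells, read out by a cell viability assay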
Description: SANGER: Inhibition of human NCI-H1299 cell growth in a cell viability assay.

[14] = system: SW 962; format: functional, cell-based;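 note: growth inhibition of human SW962 cells, read out by a cell viability assay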
Description: SANGER: Inhibition of human SW962 cell growth in a cell viability assay.

[15] = system: LAMA-84; format: functional, cell-based;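 note: growth inhibition of LAMA-84 cells, read out with a cell viability assay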
Description: SANGER: Inhibition of human LAMA-84 cell growth in a cell viability assay.

[16] = system: MC116; format: functional, cell-based;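 note: growth inhibition of MC116 cells, read out with a cell viability assay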
Description: SANGER: Inhibition of human MC116 cell growth in a cell viability assay.

[17] = system: HCE-T; format: functional, cell-based;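 note: cell viability assay read-out, reporting inhibition of HCE-T cell growth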
Description: SANGER: Inhibition of human HCE-T cell growth in a cell viability assay.

[18] = system: C2BBe1; format: functional, cell-based;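 note: growth inhibition of C2BBe1 cells, read out through a viability assay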
Description: SANGER: Inhibition of human C2BBe1 cell growth in a cell viability assay.

[19] = system: L-428; format: functional, cell-based
Description: SANGER: Inhibition of human L-428 cell growth in a cell viability assay.

[20] = system: NOMO-1; format: functional, cell-based;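 note: growth inhibition of human NOMO-1 cells measured by a cell viability assay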
Description: SANGER: Inhibition of human NOMO-1 cell growth in a cell viability assay.

[21] = system: LU-134-A; format: functional, cell-based
Description: SANGER: Inhibition of human LU-134-A cell growth in a cell viability assay.

[22] = system: MV4-11; format: functional, cell-based, MV-4-11;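 note: cell viability readout measuring growth inhibition of human MV-4-11 cells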
Description: SANGER: Inhibition of human MV-4-11 cell growth in a cell viability assay.

[23] = system: L-363; format: functional, cell-based
Description: SANGER: Inhibition of human L-363 cell growth in a cell viability assay.

[24] = system: LS-411N; format: functional, cell-based
[25] = system: MZ2-MEL; format: functional, cell-based;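 note: growth inhibition of MZ2-MEL cells read out with a cell viability assay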
Description: SANGER: Inhibition of human MZ2-MEL cell growth in a cell viability assay.

[26] = system: EW-16; format: functional, cell-based;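 note: growth inhibition of human EW-16 cells, read out as cell viability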
Description: SANGER: Inhibition of human EW-16 cell growth in a cell viability assay.

[27] = system: ES7; format: functional, cell-based;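 note: growth inhibition of cultured human ES7 cells, read out as cell viability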
Description: SANGER: Inhibition of human ES7 cell growth in a cell viability assay.

[28] = system: BB49-HNC; format: functional, cell-based;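 note: cell viability assay read-out, reported as inhibition of BB49-HNC cell growth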
Description: SANGER: Inhibition of human BB49-HNC cell growth in a cell viability assay.

[29] = system: KE-37; format: functional, cell-based;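 note: growth inhibition of KE-37 cells, read out with a cell viability assay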
Description: SANGER: Inhibition of human KE-37 cell growth in a cell viability assay.

[30] = system: NCI-H526; format: functional, cell-based;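 note: growth inhibition of the human NCI-H526 cell line, measured by a cell viability assay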
Description: SANGER: Inhibition of human NCI-H526 cell growth in a cell viability assay.

[31] = system: NMC-G1; format: functional, cell-based;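 note: growth inhibition of the NMC-G1 cell line, measured with a cell viability read-out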
Description: SANGER: Inhibition of human NMC-G1 cell growth in a cell viability assay.

[32] = system: EW-11; format: functional, cell-based;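 note: growth inhibition of human EW-11 cells, measured with a cell viability assay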
Description: SANGER: Inhibition of human EW-11 cell growth in a cell viability assay.

[33] = system: MLMA; format: functional, cell-based;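 note: growth inhibition of MLMA cells (human), determined through a cell viability readout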
Description: SANGER: Inhibition of human MLMA cell growth in a cell viability assay.

[34] = system: MHH-NB-11; format: functional, cell-based;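 note: growth inhibition of human MHH-NB-11 cells, read out by a cell viability assay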
Description: SANGER: Inhibition of human MHH-NB-11 cell growth in a cell viability assay.

[35] = system: CTB-1; format: functional, cell-based
Description: SANGER: Inhibition of human CTB-1 cell growth in a cell viability assay.

[36] = system: LS-1034; format: functional, cell-based
Description: SANGER: Inhibition of human LS-1034 cell growth in a cell viability assay.

[37] = system: SH-4; format: functional, cell-based;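 note: growth inhibition of SH-4 cells, read out with a cell viability assay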
Description: SANGER: Inhibition of human SH-4 cell growth in a cell viability assay.

[38] = system: COLO-320-HSR; format: functional, cell-based;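 note: growth inhibition of COLO-320-HSR cells, determined with a cell viability assay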
Description: SANGER: Inhibition of human COLO-320-HSR cell growth in a cell viability assay.

[39] = system: no-10; format: functional, cell-based;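 note: growth inhibition of no-10 cells, read out with a cell viability assay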
Description: SANGER: Inhibition of human no-10 cell growth in a cell viability assay.

[40] = system: SF-268; format: functional, cell-based;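 note: growth inhibition of SF-268 cells determined with a cell viability assay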
Description: SANGER: Inhibition of human SF268 cell growth in a cell viability assay.

[41] = system: IST-MES1; format: functional, cell-based;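 note: growth inhibition of IST-MES1 cells, measured with a cell viability assay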
Description: SANGER: Inhibition of human IST-MES1 cell growth in a cell viability assay.

[42] = system: J-RT3-T3-5; format: functional, cell-based;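 note: cell viability assay measuring growth inhibition of human J-RT3-T3-5 cells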
Description: SANGER: Inhibition of human J-RT3-T3-5 cell growth in a cell viability assay.

[43] = system: LB373-MEL-D; format: functional, cell-based;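 note: growth inhibition of the cell line, read out in a cell viability assay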
Description: SANGER: Inhibition of human LB373-MEL-D cell growth in a cell viability assay.

[44] = system: HL-60; format: functional, cell-based;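 note: growth inhibition of human HL-60 cells, read out with a cell viability assay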
Description: SANGER: Inhibition of human HL-60 cell growth in a cell viability assay.

[45] = system: HC-1; format: functional, cell-based;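 note: growth inhibition of HC-1 cells measured by a cell viability assay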
Description: SANGER: Inhibition of human HC-1 cell growth in a cell viability assay.

[46] = system: NKM-1; format: functional, cell-based;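 note: growth inhibition of NKM-1 cells, read out with a cell viability assay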
Description: SANGER: Inhibition of human NKM-1 cell growth in a cell viability assay.

[47] = system: MFH-ino; format: functional, cell-based;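 note: growth inhibition of human MFH-ino cells, read out by a cell viability assay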
Description: SANGER: Inhibition of human MFH-ino cell growth in a cell viability assay.

[48] = system: VA-ES-BJ; format: functional, cell-based;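 note: growth inhibition of the VA-ES-BJ cell line, read out by a cell viability assay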
Description: SANGER: Inhibition of human VA-ES-BJ cell growth in a cell viability assay.

[49] = system: DOHH-2; format: functional, cell-based;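 note: growth inhibition of human DOHH-2 cells, read out with a cell viability assay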
Description: SANGER: Inhibition of human DOHH-2 cell growth in a cell viability assay.

[50] = system: ONS-76; format: functional, cell-based;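 note: growth inhibition of human ONS-76 cells, read out with a cell viability assay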
Description: SANGER: Inhibition of human ONS-76 cell growth in a cell viability assay.

[51] = system: NCI-H1355; format: functional, cell-based;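 note: growth inhibition of human NCI-H1355 cells, read out by a cell viability assay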
Description: SANGER: Inhibition of human NCI-H1355 cell growth in a cell viability assay.

[52] = system: KS-1; format: functional, cell-based;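 note: growth inhibition of KS-1 cells, read out with a cell viability assay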
Description: SANGER: Inhibition of human KS-1 cell growth in a cell viability assay.

[53] = system: TE-5; format: functional, cell-based;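 note: inhibition of cell growth, read out by a cell viability assay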
Description: SANGER: Inhibition of human TE-5 cell growth in a cell viability assay.

[54] = system: ETK-1; format: functional, cell-based;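 note: growth inhibition of human ETK-1 cells, read out with a cell viability assay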
Description: SANGER: Inhibition of human ETK-1 cell growth in a cell viability assay.

[55] = system: K562; format: functional, cell-based
Description: SANGER: Inhibition of human K-562 cell growth in a cell viability assay.

[56] = system: MOLT-4; format: functional, cell-based;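 note: growth inhibition of MOLT-4 cells, determined with a cell viability readout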
Description: SANGER: Inhibition of human MOLT-4 cell growth in a cell viability assay.

[57] = system: GT3TKB; format: functional, cell-based;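 note: growth inhibition of the cell line, read out with a cell viability assay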
Description: SANGER: Inhibition of human GT3TKB cell growth in a cell viability assay.

[58] = system: NCI-H720; format: functional, cell-based;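 note: growth inhibition of human NCI-H720 cells determined by a cell viability assay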
Description: SANGER: Inhibition of human NCI-H720 cell growth in a cell viability assay.

[59] = system: NCI-H82; format: functional, cell-based;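 note: growth inhibition of NCI-H82 cells, measured with a cell viability readout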
Description: SANGER: Inhibition of human NCI-H82 cell growth in a cell viability assay.

[60] = system: OVCAR-4; format: functional, cell-based;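 note: growth inhibition of human OVCAR-4 cells, measured with a cell viability assay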
Description: SANGER: Inhibition of human OVCAR-4 cell growth in a cell viability assay.

[61] = system: BT-474; format: functional, cell-based
Description: SANGER: Inhibition of human BT-474 cell growth in a cell viability assay.

[62] = system: GR-ST; format: functional, cell-based
Description: SANGER: Inhibition of human GR-ST cell growth in a cell viability assay.

[63] = system: SF-126; format: functional, cell-based;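 note: growth inhibition of human SF126 cells, read out with a cell viability assay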
Description: SANGER: Inhibition of human SF126 cell growth in a cell viability assay.

[64] = system: HT; format: functional, cell-based
Description: SANGER: Inhibition of human HT cell growth in a cell viability assay.

[65] = system: ML-2; format: functional, cell-based
Description: SANGER: Inhibition of human ML-2 cell growth in a cell viability assay.

[66] = system: HD-MY-Z; format: functional, cell-based
Description: SANGER: Inhibition of human HD-MY-Z cell growth in a cell viability assay.

For `O=c1[nH]c2ccccc2n1C1CCN(Cc2ccc(-c3nc4cc5[nH]cnc5cc4nc3-c3ccccc3)cc2)CC1`, the IC50 [1] was 987 nM, the IC50 [2] was 1760 nM and the IC50 [3] was greater than 2560 nM. It also gave an IC50 [4] greater than 2560 nM, an IC50 [5] greater than 2560 nM and an IC50 [6] greater than 2560 nM. For the same molecule, the IC50 [7] was greater than 2560 nM, the IC50 [8] was greater than 2560 nM and the IC50 [9] was greater than 2560 nM. The IC50 [10] was greater than 2560 nM, the IC50 [11] was greater than 2560 nM and the IC50 [12] was greater than 2560 nM. It also gave an IC50 [13] greater than 2560 nM, an IC50 [14] greater than 2560 nM and an IC50 [15] greater than 2560 nM. The IC50 [16] was greater than 2560 nM, the IC50 [17] was greater than 2560 nM and the IC50 [18] was greater than 2560 nM. It also gave an IC50 [19] greater than 2560 nM, an IC50 [20] greater than 2560 nM and an IC50 [21] greater than 2560 nM. The IC50 [22] was greater than 2560 nM, the IC50 [23] was greater than 2560 nM and the IC50 [24] was 1250 nM. The IC50 [25] was greater than 2560 nM, the IC50 [26] was greater than 2560 nM and the IC50 [27] was 1350 nM. It also gave an IC50 [28] greater than 2560 nM, an IC50 [29] of 1840 nM and an IC50 [30] greater than 2560 nM. The IC50 [31] was greater than 2560 nM, the IC50 [32] was greater than 2560 nM and the IC50 [33] was greater than 2560 nM. It also gave an IC50 [34] greater than 2560 nM, an IC50 [35] greater than 2560 nM and an IC50 [36] greater than 2560 nM. The IC50 [37] was greater than 2560 nM, the IC50 [38] was greater than 2560 nM and the IC50 [39] was greater than 2560 nM. For the same molecule, the IC50 [40] was greater than 2560 nM, the IC50 [41] was greater than 2560 nM and the IC50 [42] was greater than 2560 nM. For the same molecule, the IC50 [43] was greater than 2560 nM, the IC50 [44] was greater than 2560 nM and the IC50 [45] was greater than 2560 nM. It also gave an IC50 [46] greater than 2560 nM, an IC50 [47] greater than 2560 nM and an IC50 [48] greater than 2560 nM. For the same molecule, the IC50 [49] was greater than 2560 nM, the IC50 [50] was greater than 2560 nM and the IC50 [51] was greater than 2560 nM. The IC50 [52] was greater than 2560 nM, the IC50 [53] was greater than 2560 nM and the IC50 [54] was greater than 2560 nM. It also gave an IC50 [55] greater than 2560 nM, an IC50 [56] greater than 2560 nM and an IC50 [57] greater than 2560 nM. It also gave an IC50 [58] greater than 2560 nM, an IC50 [59] greater than 2560 nM and an IC50 [60] greater than 2560 nM. For the same molecule, the IC50 [61] was greater than 2560 nM, the IC50 [62] was greater than 2560 nM and the IC50 [63] was greater than 2560 nM. The IC50 [64] was greater than 2560 nM, the IC50 [65] was greater than 2560 nM and the IC50 [66] was greater than 2560 nM.

In the case of `Fc1cc(-c2cc[nH]/c(=N/c3ccc(-n4cnc(N5CCOCC5)n4)cc3)n2)cc(N2CCOCC2)c1`, the IC50 [1] is reported as 709 nM, the IC50 [2] is reported as 797 nM and the IC50 [3] is reported as 520 nM. It also gave an IC50 [4] of 2240 nM, an IC50 [5] of 725 nM and an IC50 [6] of 1770 nM. The IC50 [7] was 1150 nM, the IC50 [8] was 1050 nM and the IC50 [9] was greater than 5120 nM. The IC50 [10] was 569 nM, the IC50 [11] was 536 nM and the IC50 [12] was 280 nM. For the same molecule, the IC50 [13] was 366 nM, the IC50 [14] was greater than 5120 nM and the IC50 [15] was 2950 nM. For the same molecule, the IC50 [16] was 411 nM, the IC50 [17] was 2790 nM and the IC50 [18] was 764 nM. The IC50 [19] was 649 nM, the IC50 [20] was 463 nM and the IC50 [21] was 594 nM. For the same molecule, the IC50 [22] was 545 nM, the IC50 [23] was 445 nM and the IC50 [24] was 198 nM. The IC50 [25] was 410 nM, the IC50 [26] was 451 nM and the IC50 [27] was 325 nM. The IC50 [28] was greater than 5120 nM, the IC50 [29] was 289 nM and the IC50 [30] was 957 nM. For the same molecule, the IC50 [31] was 1100 nM, the IC50 [32] was 1210 nM and the IC50 [33] was 484 nM. The IC50 [34] was 936 nM, the IC50 [35] was 1110 nM and the IC50 [36] was 1920 nM. The IC50 [37] was 410 nM, the IC50 [38] was 518 nM and the IC50 [39] was 1840 nM. It also gave an IC50 [40] of 537 nM, an IC50 [41] of 1970 nM and an IC50 [42] of 689 nM. It also gave an IC50 [43] of 2190 nM, an IC50 [44] of 546 nM and an IC50 [45] of 301 nM. It also gave an IC50 [46] of 425 nM, an IC50 [47] of 1040 nM and an IC50 [48] of 205 nM. The IC50 [49] was 715 nM, the IC50 [50] was 396 nM and the IC50 [51] was 875 nM. The IC50 [52] was 159 nM, the IC50 [53] was 339 nM and the IC50 [54] was 1060 nM. The IC50 [55] was greater than 5120 nM, the IC50 [56] was 716 nM and the IC50 [57] was 302 nM. It also gave an IC50 [58] greater than 5120 nM, an IC50 [59] greater than 5120 nM and an IC50 [60] of 467 nM. It also gave an IC50 [61] of 1130 nM, an IC50 [62] of 647 nM and an IC50 [63] of 3160 nM. It also gave an IC50 [64] of 633 nM, an IC50 [65] of 702 nM and an IC50 [66] of 1140 nM.
